Experimental findings from US12163950B2, “Synthetic odorant receptors” (Duke University, priority 2018, dated 2024) are described below.

For one assay, the system named is Mut-OR10. Kind of assay: cAMP-mediated luciferase reporter gene assay, triple Arg mutant of consensus OR10. The class given is cell-based, human. The conditions noted are these: FIG. 10F. The method, then:
(§1) FIG. 10A-B. Consensus OR1, OR6, OR10 and OR52 are functionally expressed in Hana3A cells, as indicated by cAMP-mediated luciferase assays. (A) Heatmap of ORs responses to 30 uM odorant selected from a previously screened panel of 320 compounds. Luciferase activity was normalized for each OR by setting as 1.0 the highest response value, and 0 as the lowest response value. (B) Dose-response curve of consensus ORs to candidate ligands ranging from 0 to 316 uM or 1 mM. Cells transfected with pCI vector were used as a negative control. Luciferase activity was normalized by setting as 1.0 the highest response value, and 0 as the lowest response value of each experiment. n=3, error bars indicate SEM.
(§2) FIG. 10C-D-E-F. Improvement of OR expression by mutations in TM1 and Helix 8. (C) Homology model of hOR10. Each TM is highlighted in a colored tubes and residues D511.60, S521.61, H531.62 and E294H8 are represented in licorice (pink). (D) Zoom on the residues 1.60, 1.61, 1.62, H8 mutated for hOR1 (red), hOR10 (blue), hOR51 (green) and hOR52 (pink). […]
(§3) The consensus ORs already show a clear increase of cell surface expression in comparison to naturally-occurring ORs. […] Experiments evaluated the cell surface expression of the consensus ORs with their corresponding triple Arg mutants, including a well-studied non-olfactory class A GPCR, the muscarinic 3 receptor (M3) (FIG. 10E). […]

A further assay concerns Mut-OR52. Kind of assay: cAMP-mediated luciferase reporter gene assay, triple Arg mutant of consensus OR52. It counts as cell-based, human. The conditions noted are these: FIG. 10F. The procedure:
as §1, §2, §3

Molecules are shown by their SMILES.

Take `CC(=O)/C=C/C1=C(C)CCCC1(C)C` [0-ionone, β-ionone]: the “response of Mut-OR10 compared to consensus OR10” value in the assay with Mut-OR10 is on record as “diminished compared to OR10”. Besides, the “response of Mut-OR10 to its agonist (luciferase activity)” value in the assay on Mut-OR10 (dose-response) is on record as “responded”.
For the molecule `CCCCCCCCC(=O)O` [nonanoic acid], the “response of Mut-OR52 to its agonist (luciferase activity)” value in the assay with Mut-OR52 was “responded”.
